Data taken from paper PMC6155273, “Antiprotozoal Activity of Triazole Derivatives of Dehydroabietic Acid and Oleanolic Acid” (Molecules : A Journal of Synthetic Chemistry and Natural …, 2017).

Tested on: L. braziliensis promastigotes
Experiment: Leishmanicidal activity on L. braziliensis promastigotes (resazurin)
Format: cell-based, Leishmania braziliensis
Settings: Leishmania braziliensis, 48 h, read-out: Leishmanicidal Activity on Promastigotes, L. braziliensis, IC50
Protocol: (§1) Culture of L. braziliensis (MHOM/BR/75/M2904), and L. infantum (MHOM/FR/91/LEM2259V) was obtained from the Facultad de Farmacia (Universidad Complutense de, Madrid, Spain). The maintenance of the strains, the form of cultivation, and the isolation of shape promastigota were performed following the procedures described by Roldos et al.. The promastigotes were grown at 22 °C in Schneider’s Drosophila medium supplemented with 20% FBS. The assay was performed using a modification of a previous method. Promastigotes (2 × 10^6 parasites/well) were cultured in 96-well plastic plates. Compounds were dissolved in dimethylsulfoxide (DMSO). Different dilutions of the compounds with a final volume up to 200 µL were added. After 48 h at 26 °C, 20 µL of a 2 mM resazurin solution was added, and the oxidation-reduction was quantified at 570 and 600 nm. The solution of resazurin was prepared at 2.5 mM in phosphate buffered solution (PBS), pH 7.4, and filtered through 0.22 µm prior to use. All tests were carried out in triplicate. Resazurin sodium salt was obtained from Sigma-Aldrich (St. Louis, MO, USA) and stored at 4 °C protected from light. The efficacy of each compound was estimated by calculating the IC50 values.

Structure (SMILES)	IC50 [µg/mL]
CC(C)c1ccc2c(c1)CCC1[C@](C)(COC(=O)CCCCc3cn(Cc4ccccc4)nn3)CCC[C@]21C (stereo partly drawn) [Compound 8]	> 256
CC1(C)CC[C@]2(C(=O)O)CC[C@]3(C)C(=CCC4[C@@]5(C)CC[C@H](OC(=O)CCc6cn(Cc7ccc(Cl)cc7)nn6)C(C)(C)C5CC[C@]43C)[C@@H]2C1 (stereo partly drawn) [Compound 25]	> 256
CC1(C)CC[C@]2(C(=O)O)CC[C@]3(C)C(=CCC4[C@@]5(C)CC[C@H](OC(=O)CCc6cn(CSc7ccccc7)nn6)C(C)(C)C5CC[C@]43C)[C@@H]2C1 (stereo partly drawn) [Compound 29]	> 256
COc1ccc(-n2cc(CCC(=O)O[C@H]3CC[C@@]4(C)C(CC[C@]5(C)C4CC=C4[C@@H]6CC(C)(C)CC[C@]6(C(=O)O)CC[C@]45C)C3(C)C)nn2)cc1 (stereo partly drawn) [Compound 23]	> 256
CC(C)c1ccc2c(c1)CCC1[C@](C)(COC(=O)CCCCc3cn(Cc4cccc(Cl)c4)nn3)CCC[C@]21C (stereo partly drawn) [Compound 14]	> 256
C#CCCC(=O)O[C@H]1CC[C@@]2(C)C(CC[C@]3(C)C2CC=C2[C@@H]4CC(C)(C)CC[C@]4(C(=O)OC)CC[C@]23C)C1(C)C (stereo partly drawn) [Compound 18]	> 256

Tested on: L. infantum promastigotes
Experiment: Leishmanicidal activity on L. infantum promastigotes (resazurin)
Format: cell-based, Leishmania infantum
Settings: Leishmania infantum, 48 h, read-out: Leishmanicidal Activity on Promastigotes, L. infantum, IC50
Protocol: as §1

Structure (SMILES)	IC50 [µg/mL]
CC(C)c1ccc2c(c1)CCC1[C@](C)(COC(=O)CCCCc3cn(Cc4ccccc4)nn3)CCC[C@]21C (stereo partly drawn) [Compound 8]	> 256
CC1(C)CC[C@]2(C(=O)O)CC[C@]3(C)C(=CCC4[C@@]5(C)CC[C@H](OC(=O)CCc6cn(Cc7ccc(Cl)cc7)nn6)C(C)(C)C5CC[C@]43C)[C@@H]2C1 (stereo partly drawn) [Compound 25]	> 256
CC1(C)CC[C@]2(C(=O)O)CC[C@]3(C)C(=CCC4[C@@]5(C)CC[C@H](OC(=O)CCc6cn(CSc7ccccc7)nn6)C(C)(C)C5CC[C@]43C)[C@@H]2C1 (stereo partly drawn) [Compound 29]	> 256
COc1ccc(-n2cc(CCC(=O)O[C@H]3CC[C@@]4(C)C(CC[C@]5(C)C4CC=C4[C@@H]6CC(C)(C)CC[C@]6(C(=O)O)CC[C@]45C)C3(C)C)nn2)cc1 (stereo partly drawn) [Compound 23]	> 256
CC(C)c1ccc2c(c1)CCC1[C@](C)(COC(=O)CCCCc3cn(Cc4cccc(Cl)c4)nn3)CCC[C@]21C (stereo partly drawn) [Compound 14]	> 256
C#CCCC(=O)O[C@H]1CC[C@@]2(C)C(CC[C@]3(C)C2CC=C2[C@@H]4CC(C)(C)CC[C@]4(C(=O)OC)CC[C@]23C)C1(C)C (stereo partly drawn) [Compound 18]	> 256

Tested on: T. cruzi epimastigotes
Experiment: Antiepimastigote activity, T. cruzi CL-B5 lacZ (CPRG)
Format: cell-based, Trypanosoma cruzi
Settings: Trypanosoma cruzi, clone CL-B5, 72 h
Protocol: For in vitro studies of T. cruzi, the clone CL-B5 was used (donated by Faculty of Pharmacy, Complutense University, Madrid, Spain). Parasites were stably transfected with the Escherichia coli β-galactosidase gene (lacZ). Epimastigotes were grown at 28 °C in liver infusion tryptose broth (Difco, Detroit, MI, USA) with 10% fetal bovine serum (FBS) (Gibco, Carlsbad, CA, USA), penicillin (Ern S.A., Barcelona, Spain), and streptomycin (Reig Jofré S.A., Barcelona, Spain), as described previously, and harvested during the exponential growth phase. Briefly, the screening assay was performed in 96-well microplates (Sarstedt, Inc., Newton, NC, USA) with cultures that had not reached the stationary phase. Epimastigotes were seeded at 2 × 10^5 parasites/mL in 200 µL growth media. The plates were then incubated with the respective compounds at 28 °C for 72 h; afterwards, 50 µL of chlorophenol red-β-D-galactopyranoside (CPRG) solution was added, resulting in a final concentration of 200 µM. The plates were incubated at 37 °C for an additional 4 h and then read at 595 nm. Each concentration was tested in triplicate. The efficacy of each compound was estimated by calculating the IC50 values. These values were calculated by the sigmoidal dose–response curve adjustment using the statistical software program Graph-Pad Prims 3.0 (GraphPhad, San Diego, CA, USA). Benznidazole was used as the reference drug.

Structure (SMILES)	IC50 [µg/mL]
CC(C)c1ccc2c(c1)CCC1[C@](C)(COC(=O)CCCCc3cn(Cc4ccccc4)nn3)CCC[C@]21C (stereo partly drawn) [Compound 8]	> 256
CC1(C)CC[C@]2(C(=O)O)CC[C@]3(C)C(=CCC4[C@@]5(C)CC[C@H](OC(=O)CCc6cn(Cc7ccc(Cl)cc7)nn6)C(C)(C)C5CC[C@]43C)[C@@H]2C1 (stereo partly drawn) [Compound 25]	> 256
CC1(C)CC[C@]2(C(=O)O)CC[C@]3(C)C(=CCC4[C@@]5(C)CC[C@H](OC(=O)CCc6cn(CSc7ccccc7)nn6)C(C)(C)C5CC[C@]43C)[C@@H]2C1 (stereo partly drawn) [Compound 29]	> 256
COc1ccc(-n2cc(CCC(=O)O[C@H]3CC[C@@]4(C)C(CC[C@]5(C)C4CC=C4[C@@H]6CC(C)(C)CC[C@]6(C(=O)O)CC[C@]45C)C3(C)C)nn2)cc1 (stereo partly drawn) [Compound 23]	> 256
CC(C)c1ccc2c(c1)CCC1[C@](C)(COC(=O)CCCCc3cn(Cc4cccc(Cl)c4)nn3)CCC[C@]21C (stereo partly drawn) [Compound 14]	> 256
C#CCCC(=O)O[C@H]1CC[C@@]2(C)C(CC[C@]3(C)C2CC=C2[C@@H]4CC(C)(C)CC[C@]4(C(=O)OC)CC[C@]23C)C1(C)C (stereo partly drawn) [Compound 18]	> 256

Tested on: not listed separately
Experiment: Cytotoxicity on NCTC-Clone 929 fibroblasts (resazurin)
Format: cell-based
Settings: mouse
Protocol: The cell line used was NCTC-Clone 929, which was grown in Minimal Essential Medium (Sigma) supplemented with 10% heat-inactivated FBS, penicillin G (100 U/mL), and streptomycin (100 µg/mL). Cell cultures were maintained at 37 °C in a humidified 5% CO2 atmosphere. The procedure for cell viability measurement was evaluated with resazurin by a colorimetric method. The cells were plated in 96-microtiter plates at 3 × 10^4 cells per well in a 100 µL growth medium. The cells were grown overnight at 37 °C, 5% CO2. Thereafter, the medium was removed and the compounds were added in a 200 µL medium for 24 h. After incubation, 20 µL of a 2 mM resazurin solution was added to each well. The plates were incubated for 3 h to allow optimal oxidation-reduction. The reduction of resazurin was determined by dual wavelength absorbance measurement at 490 and 595 nm. Background was subtracted. Each concentration was assayed three times. Medium and drug controls were used in each test as blanks.

Structure (SMILES)	IC50 at 24 h [µg/mL]
CC(C)c1ccc2c(c1)CCC1[C@](C)(COC(=O)CCCCc3cn(Cc4ccccc4)nn3)CCC[C@]21C (stereo partly drawn) [Compound 8]	> 256
CC1(C)CC[C@]2(C(=O)O)CC[C@]3(C)C(=CCC4[C@@]5(C)CC[C@H](OC(=O)CCc6cn(Cc7ccc(Cl)cc7)nn6)C(C)(C)C5CC[C@]43C)[C@@H]2C1 (stereo partly drawn) [Compound 25]	> 256
CC1(C)CC[C@]2(C(=O)O)CC[C@]3(C)C(=CCC4[C@@]5(C)CC[C@H](OC(=O)CCc6cn(CSc7ccccc7)nn6)C(C)(C)C5CC[C@]43C)[C@@H]2C1 (stereo partly drawn) [Compound 29]	> 256
COc1ccc(-n2cc(CCC(=O)O[C@H]3CC[C@@]4(C)C(CC[C@]5(C)C4CC=C4[C@@H]6CC(C)(C)CC[C@]6(C(=O)O)CC[C@]45C)C3(C)C)nn2)cc1 (stereo partly drawn) [Compound 23]	> 256
CC(C)c1ccc2c(c1)CCC1[C@](C)(COC(=O)CCCCc3cn(Cc4cccc(Cl)c4)nn3)CCC[C@]21C (stereo partly drawn) [Compound 14]	> 256
C#CCCC(=O)O[C@H]1CC[C@@]2(C)C(CC[C@]3(C)C2CC=C2[C@@H]4CC(C)(C)CC[C@]4(C(=O)OC)CC[C@]23C)C1(C)C (stereo partly drawn) [Compound 18]	> 256
